Read-outs that look alike come from different tables or passages of the source.
Key:
Assay in all cases: TGFα-shedding assay-based GPCR screening with chimeric Gα subunit proteins
Assay type in all cases: cell-based
[1] = molecular target: T1, 348 GPCRs (Homo sapiens, UniProt P47211); settings: 10µM, Favipiravir 100μM
T1 sequence (P47211 1-349): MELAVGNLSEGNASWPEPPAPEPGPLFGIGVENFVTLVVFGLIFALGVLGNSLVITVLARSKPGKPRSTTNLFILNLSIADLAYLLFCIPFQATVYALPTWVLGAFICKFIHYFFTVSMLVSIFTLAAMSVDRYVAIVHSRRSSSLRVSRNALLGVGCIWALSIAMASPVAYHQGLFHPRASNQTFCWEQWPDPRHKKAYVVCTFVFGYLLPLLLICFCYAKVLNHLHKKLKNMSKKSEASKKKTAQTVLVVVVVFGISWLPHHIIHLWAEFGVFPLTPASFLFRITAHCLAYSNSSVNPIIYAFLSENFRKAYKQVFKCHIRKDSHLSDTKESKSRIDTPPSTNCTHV

[2] = molecular target: T2, 348 GPCRs (Homo sapiens, UniProt P13945); settings: 10µM, Favipiravir 100μM
T2 construct: expressed in transfected cells; host or cells: HEK293A

[3] = molecular target: T3, 348 GPCRs (Homo sapiens, UniProt Q16538); settings: 10µM, Favipiravir 100μM
T3 construct: expressed in transfected cells; host or cells: HEK293A

[4] = molecular target: T4, 348 GPCRs (Homo sapiens, UniProt O60755); settings: 10µM, Favipiravir 100μM
T4 construct: expressed in transfected cells; host or cells: HEK293A
T4 sequence (O60755 1-368): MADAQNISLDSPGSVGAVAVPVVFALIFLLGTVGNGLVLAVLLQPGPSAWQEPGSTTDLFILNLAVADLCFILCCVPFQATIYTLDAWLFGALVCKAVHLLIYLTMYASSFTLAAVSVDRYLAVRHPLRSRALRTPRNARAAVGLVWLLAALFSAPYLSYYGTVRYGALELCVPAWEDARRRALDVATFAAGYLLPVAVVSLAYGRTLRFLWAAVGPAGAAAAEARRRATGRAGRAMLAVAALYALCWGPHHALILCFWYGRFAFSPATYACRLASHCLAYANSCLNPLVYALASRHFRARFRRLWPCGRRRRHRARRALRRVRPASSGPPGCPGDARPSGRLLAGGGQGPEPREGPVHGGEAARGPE

[5] = molecular target: T5, 348 GPCRs (Homo sapiens, UniProt P34998)
T5 construct: expressed in transfected cells; host or cells: HEK293A
T5 sequence (P34998 24-415): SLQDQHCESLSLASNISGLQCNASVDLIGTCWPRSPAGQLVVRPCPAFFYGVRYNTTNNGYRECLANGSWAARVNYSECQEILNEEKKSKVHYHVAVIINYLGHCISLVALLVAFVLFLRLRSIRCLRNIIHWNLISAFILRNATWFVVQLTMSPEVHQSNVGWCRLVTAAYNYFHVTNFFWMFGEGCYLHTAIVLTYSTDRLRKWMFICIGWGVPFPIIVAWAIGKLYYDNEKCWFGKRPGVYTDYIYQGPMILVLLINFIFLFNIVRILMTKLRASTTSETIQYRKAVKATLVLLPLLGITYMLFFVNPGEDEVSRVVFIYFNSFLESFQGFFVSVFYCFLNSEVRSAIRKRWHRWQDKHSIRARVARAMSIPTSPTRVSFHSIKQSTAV

[6] = molecular target: T6, 348 GPCRs (Homo sapiens, UniProt Q99680); settings: 10µM, Favipiravir 100μM
T6 construct: expressed in transfected cells; host or cells: HEK293A

[7] = molecular target: T7, 348 GPCRs (Homo sapiens, UniProt Q9Y5Y3)
T7 construct: expressed in transfected cells; host or cells: HEK293A

[8] = molecular target: T8, 348 GPCRs (Homo sapiens, UniProt P23945); settings: 10µM, Favipiravir 100μM
T8 construct: expressed in transfected cells; host or cells: HEK293A
T8 sequence (P23945 18-695): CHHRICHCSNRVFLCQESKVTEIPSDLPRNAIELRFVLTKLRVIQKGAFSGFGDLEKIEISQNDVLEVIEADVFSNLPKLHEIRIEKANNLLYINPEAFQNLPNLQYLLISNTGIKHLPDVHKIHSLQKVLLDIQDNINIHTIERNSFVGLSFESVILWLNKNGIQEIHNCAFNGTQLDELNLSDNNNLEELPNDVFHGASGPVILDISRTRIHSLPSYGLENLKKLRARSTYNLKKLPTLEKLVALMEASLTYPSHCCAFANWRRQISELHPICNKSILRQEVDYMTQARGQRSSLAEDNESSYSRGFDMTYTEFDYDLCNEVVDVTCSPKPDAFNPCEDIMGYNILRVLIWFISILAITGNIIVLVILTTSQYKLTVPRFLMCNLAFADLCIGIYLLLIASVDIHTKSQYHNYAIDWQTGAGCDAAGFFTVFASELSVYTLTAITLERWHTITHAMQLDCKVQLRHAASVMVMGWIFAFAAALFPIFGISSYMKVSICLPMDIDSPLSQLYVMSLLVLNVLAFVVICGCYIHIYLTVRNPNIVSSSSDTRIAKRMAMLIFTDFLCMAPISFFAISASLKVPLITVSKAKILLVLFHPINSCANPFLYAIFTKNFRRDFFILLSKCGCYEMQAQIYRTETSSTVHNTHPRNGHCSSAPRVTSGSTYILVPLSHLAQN

[9] = molecular target: T9, 348 GPCRs (Homo sapiens, UniProt O14626); settings: 10µM, Favipiravir 100μM
T9 construct: expressed in transfected cells; host or cells: HEK293A
T9 sequence (O14626 1-319): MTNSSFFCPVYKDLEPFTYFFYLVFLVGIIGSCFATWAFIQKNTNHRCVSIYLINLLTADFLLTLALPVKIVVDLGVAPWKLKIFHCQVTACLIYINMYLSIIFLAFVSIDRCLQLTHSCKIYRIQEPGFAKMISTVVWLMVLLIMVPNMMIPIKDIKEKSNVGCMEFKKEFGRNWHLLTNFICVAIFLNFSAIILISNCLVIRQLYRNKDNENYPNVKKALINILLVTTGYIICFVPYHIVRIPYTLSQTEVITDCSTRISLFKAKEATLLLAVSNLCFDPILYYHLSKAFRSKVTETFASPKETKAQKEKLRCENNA

[10] = read-out: % GPCR activation compared to TPA, GALR1 (galanin receptor 1)
[11] = read-out: % GPCR activation compared to TPA, ADRB3 (adrenoceptor beta 3)
[12] = read-out: % GPCR activation compared to TPA, GPR162 (G Protein-Coupled Receptor 162)
[13] = read-out: % GPCR activation compared to TPA, GALR3 (galanin receptor 3)
[14] = read-out: % GPCR activation compared to TPA, GPCR CRHR1 (corticotropin releasing hormone receptor 1)
[15] = read-out: % GPCR activation compared to TPA, GPR22 (G Protein-Coupled Receptor 22)
[16] = read-out: % GPCR activation compared to TPA, GPCR GPR45 (G Protein-Coupled Receptor 45)
[17] = read-out: % GPCR activation compared to TPA, FSHR (follicle stimulating hormone receptor)
[18] = read-out: % GPCR activation compared to TPA, GPR171 (G Protein-Coupled Receptor 171)
[19] = GALR1 (galanin receptor 1), read-out: % GPCR activation compared to TPA
[20] = ADRB3 (adrenoceptor beta 3), read-out: % GPCR activation compared to TPA
[21] = GPR162 (G Protein-Coupled Receptor 162), read-out: % GPCR activation compared to TPA
[22] = GALR3 (galanin receptor 3), read-out: % GPCR activation compared to TPA
[23] = GPCR CRHR1 (corticotropin releasing hormone receptor 1), read-out: % GPCR activation compared to TPA
[24] = GPR22 (G Protein-Coupled Receptor 22), read-out: % GPCR activation compared to TPA
[25] = GPCR GPR45 (G Protein-Coupled Receptor 45), read-out: % GPCR activation compared to TPA
[26] = FSHR (follicle stimulating hormone receptor), read-out: % GPCR activation compared to TPA
[27] = GPR171 (G Protein-Coupled Receptor 171), read-out: % GPCR activation compared to TPA

T6 sequence (Q99680 whole entry): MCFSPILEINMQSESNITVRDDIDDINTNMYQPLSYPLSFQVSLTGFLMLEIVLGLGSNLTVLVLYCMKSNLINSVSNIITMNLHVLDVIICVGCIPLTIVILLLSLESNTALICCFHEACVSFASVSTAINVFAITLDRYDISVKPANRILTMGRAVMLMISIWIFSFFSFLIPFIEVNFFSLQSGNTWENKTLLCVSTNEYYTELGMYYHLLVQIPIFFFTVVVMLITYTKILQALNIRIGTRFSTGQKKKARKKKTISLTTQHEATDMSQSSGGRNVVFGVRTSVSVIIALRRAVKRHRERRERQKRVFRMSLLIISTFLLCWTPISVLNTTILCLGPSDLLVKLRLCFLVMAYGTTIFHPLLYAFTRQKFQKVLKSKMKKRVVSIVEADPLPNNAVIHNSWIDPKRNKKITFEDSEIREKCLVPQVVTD
T2 sequence (P13945 whole entry): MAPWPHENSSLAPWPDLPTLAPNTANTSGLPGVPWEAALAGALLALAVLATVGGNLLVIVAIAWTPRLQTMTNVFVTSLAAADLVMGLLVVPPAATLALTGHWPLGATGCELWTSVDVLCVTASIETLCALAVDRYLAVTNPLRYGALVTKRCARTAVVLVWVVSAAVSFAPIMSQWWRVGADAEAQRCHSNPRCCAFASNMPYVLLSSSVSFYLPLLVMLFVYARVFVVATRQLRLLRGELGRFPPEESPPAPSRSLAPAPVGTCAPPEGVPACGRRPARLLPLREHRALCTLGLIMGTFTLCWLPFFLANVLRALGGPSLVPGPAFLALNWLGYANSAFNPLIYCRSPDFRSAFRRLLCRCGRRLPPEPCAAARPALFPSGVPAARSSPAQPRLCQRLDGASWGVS
T3 sequence (Q16538 whole entry): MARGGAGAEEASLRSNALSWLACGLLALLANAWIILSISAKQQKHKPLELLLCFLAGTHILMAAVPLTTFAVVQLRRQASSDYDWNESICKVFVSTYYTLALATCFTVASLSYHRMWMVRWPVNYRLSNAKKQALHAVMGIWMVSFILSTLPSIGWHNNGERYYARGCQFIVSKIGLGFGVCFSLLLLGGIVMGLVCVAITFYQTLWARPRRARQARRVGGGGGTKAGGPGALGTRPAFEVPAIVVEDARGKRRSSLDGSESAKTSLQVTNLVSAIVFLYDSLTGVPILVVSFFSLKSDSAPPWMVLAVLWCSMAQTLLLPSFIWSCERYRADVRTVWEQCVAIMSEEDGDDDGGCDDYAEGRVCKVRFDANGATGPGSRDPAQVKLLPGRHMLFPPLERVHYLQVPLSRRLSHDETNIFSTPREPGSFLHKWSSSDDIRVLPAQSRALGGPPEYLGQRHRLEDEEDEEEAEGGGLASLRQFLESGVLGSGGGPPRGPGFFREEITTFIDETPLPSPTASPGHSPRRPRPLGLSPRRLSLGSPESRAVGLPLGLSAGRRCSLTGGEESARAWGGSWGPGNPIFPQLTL
T7 sequence (Q9Y5Y3 whole entry): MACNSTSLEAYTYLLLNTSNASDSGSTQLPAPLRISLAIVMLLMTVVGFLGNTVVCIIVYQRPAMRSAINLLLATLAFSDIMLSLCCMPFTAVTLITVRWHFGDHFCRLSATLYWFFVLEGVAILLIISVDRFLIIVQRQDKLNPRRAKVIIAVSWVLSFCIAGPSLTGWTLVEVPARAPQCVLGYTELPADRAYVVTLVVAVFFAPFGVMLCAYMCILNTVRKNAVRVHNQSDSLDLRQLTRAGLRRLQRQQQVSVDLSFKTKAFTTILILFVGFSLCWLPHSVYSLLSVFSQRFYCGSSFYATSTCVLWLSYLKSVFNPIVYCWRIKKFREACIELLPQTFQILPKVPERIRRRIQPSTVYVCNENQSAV

Compound	activation at 100 µM [1, 19] [%]	activation at 10 µM [2, 20] [%]	activation at 10 µM [3, 21] [%]	activation at 100 µM [4, 22] [%]	activation at 10 µM [5, 23] [%]	activation at 100 µM [6, 24] [%]	activation at 10 µM [7, 25] [%]	activation at 100 µM [8, 26] [%]	activation at 10 µM [9, 27] [%]	activation at 100 µM ([5]; GPCR CRHR1 (corticotropin releasing hormone receptor 1), 100μM, read-out: % GPCR activation compared to TPA) [%]	activation at 100 µM ([7]; GPCR GPR45 (G Protein-Coupled Receptor 45), 100μM, read-out: % GPCR activation compared to TPA) [%]	activation at 100 µM [1, 10] [%]	activation at 10 µM [2, 11] [%]	activation at 10 µM [3, 12] [%]	activation at 100 µM [4, 13] [%]	activation at 10 µM [5, 14] [%]	activation at 100 µM [6, 15] [%]	activation at 10 µM [7, 16] [%]	activation at 100 µM [8, 17] [%]	activation at 10 µM [9, 18] [%]
CC(C)OC(=O)[C@H](C)N[P@](=O)(OC[C@H]1O[C@@H](n2ccc(=O)[nH]c2=O)[C@](C)(F)[C@@H]1O)Oc1ccccc1 [sofosbuvir]	–	–	–	–	–	–	–	–	–	–	–	-0.0144	-0.333	0.48	-0.187	1.15	0.408	0.955	2.02	-0.832
N#C[C@@]1(c2ccc3c(N)ncnn23)O[C@H](CO)[C@@H](O)[C@H]1O [GS441524]	0.832	0.201	-0.758	2.25	0.467	0.701	-0.0256	1.25	-1.42	–	–	–	–	–	–	–	–	–	–	–
CCC(CC)COC(=O)[C@H](C)N[P@](=O)(OC[C@H]1O[C@@](C#N)(c2ccc3c(N)ncnn23)[C@H](O)[C@@H]1O)Oc1ccccc1 [remdesivir]	–	–	–	–	–	–	–	–	–	–	–	6.53	-0.789	2.55	3.03	2.05	-1.09	0.315	2.23	2.61

The next lines start with results.

activation at 100 µM [1, 19] [%]	activation at 10 µM [2, 20] [%]	activation at 10 µM [3, 21] [%]	activation at 100 µM [4, 22] [%]	activation at 10 µM [5, 23] [%]	activation at 100 µM [6, 24] [%]	activation at 10 µM [7, 25] [%]	activation at 100 µM [8, 26] [%]	activation at 10 µM [9, 27] [%]	activation at 100 µM ([5]; GPCR CRHR1 (corticotropin releasing hormone receptor 1), 100μM, read-out: % GPCR activation compared to TPA) [%]	activation at 100 µM ([7]; GPCR GPR45 (G Protein-Coupled Receptor 45), 100μM, read-out: % GPCR activation compared to TPA) [%]	Compound	activation at 100 µM [1, 10] [%]	activation at 10 µM [2, 11] [%]	activation at 10 µM [3, 12] [%]	activation at 100 µM [4, 13] [%]	activation at 10 µM [5, 14] [%]	activation at 100 µM [6, 15] [%]	activation at 10 µM [7, 16] [%]	activation at 100 µM [8, 17] [%]	activation at 10 µM [9, 18] [%]
1.08	-0.737	-1.64	0.404	1.11	-2.13	0.592	0.229	-2.4	–	–	CC(C)C(=O)OC[C@H]1O[C@@H](n2ccc(NO)nc2=O)[C@H](O)[C@@H]1O [molnupiravir]	–	–	–	–	–	–	–	–	–
7.08	-0.975	-1.13	3.96	–	-0.704	–	3.61	-0.909	-0.37	-0.546	NC(=O)c1nc(F)cnc1O [favipiravir, 6-fluoro-3-hydroxy-2-pyrazinecarboxamide]	–	–	–	–	–	–	–	–	–

From paper PMC10175918 (Communications Biology, 2023)
